Measured values taken from patent publication US12559492B2, “BRAF degraders” (C4 Therapeutics, Inc., priority 2020, dated 2026).

Target: BRAF^V600E protein (Homo sapiens, UniProt P15056, V600E)
Assay: HiBiT cellular BRAF V600E degradation assay
Type: cell-based
Settings: 24 h incubation; for DC50: A375.10 cells (HiBiT tag knocked in at N-terminal of BRAF V600E), concentration at which 50% of total cellular BRAF V600E is degraded; for Emax: A375.10 cells, Emax = amount of residual protein remaining in the cell after compound treatment, read-out: HiBit 24 h Emax

Sequence of BRAF^V600E protein (P15056 whole entry V600E): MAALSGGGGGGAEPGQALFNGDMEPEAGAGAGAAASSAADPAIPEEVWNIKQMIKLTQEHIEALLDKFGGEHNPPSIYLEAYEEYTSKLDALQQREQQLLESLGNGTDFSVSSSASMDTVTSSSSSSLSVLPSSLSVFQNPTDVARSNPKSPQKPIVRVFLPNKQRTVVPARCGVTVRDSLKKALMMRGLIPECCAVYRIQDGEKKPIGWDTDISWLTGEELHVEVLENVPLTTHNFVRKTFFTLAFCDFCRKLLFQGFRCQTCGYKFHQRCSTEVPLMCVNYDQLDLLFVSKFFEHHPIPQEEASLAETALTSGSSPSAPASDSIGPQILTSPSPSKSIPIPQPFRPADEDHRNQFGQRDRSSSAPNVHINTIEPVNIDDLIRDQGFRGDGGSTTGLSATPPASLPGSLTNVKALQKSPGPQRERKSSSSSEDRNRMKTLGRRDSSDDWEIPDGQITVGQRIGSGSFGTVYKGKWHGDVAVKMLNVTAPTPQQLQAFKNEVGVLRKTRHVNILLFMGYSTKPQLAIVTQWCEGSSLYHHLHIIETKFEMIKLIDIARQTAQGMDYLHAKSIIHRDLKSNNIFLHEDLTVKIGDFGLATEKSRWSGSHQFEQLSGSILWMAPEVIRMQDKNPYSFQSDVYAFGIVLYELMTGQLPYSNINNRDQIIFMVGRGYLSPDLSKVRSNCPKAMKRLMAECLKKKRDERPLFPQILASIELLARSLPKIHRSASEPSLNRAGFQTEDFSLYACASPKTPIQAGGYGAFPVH

Row | SMILES | DC50 | Emax
1 | CCN(C)S(=O)(=O)Nc1cccc(C(=O)c2c[nH]c3ncc(-c4ccc(N5CCN(C(=O)CC6(O)CCN(c7ccc(N8CCC(=O)NC8=O)cc7F)CC6)CC5)nc4)cc23)c1F [Example 164, 5-[6-[4-[2-[1-[4-(2,4-dioxohexahydropyrimidin-1-yl)-2-fluoro-phenyl]-4-hydroxy-4-piperidyl]acetyl]piperazin-1-yl]-3-pyridyl]-3-[3-[[ethyl(methyl)sulfamoyl]amino]-2-fluoro-benzoyl]-1H-pyrrolo[2,3-b]pyridine] | 2.31 nM | 10.2%
2 | CCN(C)S(=O)(=O)Nc1cccc(C(=O)c2c[nH]c3ncc(-c4cnc(N5CCN(C(=O)CC6(O)CCN(c7ccc(N8CCC(=O)NC8=O)cc7F)CC6)CC5)nc4)cc23)c1F [Example 165, 5-[2-[4-[2-[1-[4-(2,4-dioxohexahydropyrimidin-1-yl)-2-fluoro-phenyl]-4-hydroxy-4-piperidyl]acetyl]piperazin-1-yl]pyrimidin-5-yl]-3-[3-[[ethyl(methyl)sulfamoyl]amino]-2-fluoro-benzoyl]-1H-pyrrolo[2,3-b]pyridine] | 6.27 nM | 10.8%
3 | CCN(C)S(=O)(=O)Nc1ccc(F)c(C(=O)c2c[nH]c3ncc(-c4cnc(N5CCN(C(=O)CC6(O)CCN(c7ccc(N8CCC(=O)NC8=O)cc7F)CC6)CC5)nc4)cc23)c1F [Example 167, 5-[2-[4-[2-[1-[4-(2,4-dioxohexahydropyrimidin-1-yl)-2-fluoro-phenyl]-4-hydroxy-4-piperidyl]acetyl]piperazin-1-yl]pyrimidin-5-yl]-3-[3-[[ethyl(methyl)sulfamoyl]amino]-2,6-difluoro-benzoyl]-1H-pyrrolo[2,3-b]pyridine] | 7.05 nM | 9.37%
4 | CCN(C)S(=O)(=O)Nc1ccc(F)c(C(=O)c2c[nH]c3ncc(-c4ccc(N5CCN(C(=O)CC6(O)CCN(c7ccc(N8CCC(=O)NC8=O)cc7F)CC6)CC5)nc4)cc23)c1F [Example 168, 5-[6-[4-[2-[1-[4-(2,4-dioxohexahydropyrimidin-1-yl)-2-fluoro-phenyl]-4-hydroxy-4-piperidyl]acetyl]piperazin-1-yl]-3-pyridyl]-3-[3-[[ethyl(methyl)sulfamoyl]amino]-2,6-difluoro-benzoyl]-1H-pyrrolo[2,3-b]pyridine] | 3 nM | 10.2%
5 | CCN(C)S(=O)(=O)Nc1ccc(F)c(C(=O)c2c[nH]c3ncc(-c4ccc(N5CCN(C(=O)CC6(O)CCN(c7ccc(N8CCC(=O)NC8=O)cc7F)CC6)CC5)cc4)cc23)c1F [Example 169, 5-[4-[4-[2-[1-[4-(2,4-dioxohexahydropyrimidin-1-yl)-2-fluoro-phenyl]-4-hydroxy-4-piperidyl]acetyl]piperazin-1-yl]phenyl]-3-[3-[[ethyl(methyl)sulfamoyl]amino]-2,6-difluoro-benzoyl]-1H-pyrrolo[2,3-b]pyridine] | 2.82 nM | 7.34%
6 | CCN(C)S(=O)(=O)Nc1ccc(F)c(C(=O)c2c[nH]c3ncc(-c4ccc(N5CCN(C(=O)CC6(O)CCN(c7ccc(NC8CCC(=O)NC8=O)cc7F)CC6)CC5)nc4)cc23)c1Cl (stereo not shown) [Example 170, 3-[2-chloro-3-[[ethyl(methyl)sulfamoyl]amino]-6-fluoro-benzoyl]-5-[6-[4-[2-[1-[4-[(2,6-dioxo-3-piperidyl)amino]-2-fluoro-phenyl]-4-hydroxy-4-piperidyl]acetyl]piperazin-1-yl]-3-pyridyl]-1H-pyrrolo[2,3-b]pyridine] | 4.59 nM | 10.5%
7 | CCN(C)S(=O)(=O)Nc1ccc(F)c(C(=O)c2c[nH]c3ncc(-c4ccc(N5CCN(C(=O)CN6CCC(N7CCN(C8CCC(=O)NC8=O)C(=O)C7)C(F)(F)C6)CC5)nc4)cc23)c1F (stereo not shown) [Example 171, 5-[6-[4-[2-[4-[4-(2,6-dioxo-3-piperidyl)-3-oxo-piperazin-1-yl]-3,3-difluoro-1-piperidyl]acetyl]piperazin-1-yl]-3-pyridyl]-3-[3-[[ethyl(methyl)sulfamoyl]amino]-2,6-difluoro-benzoyl]-1H-pyrrolo[2,3-b]pyridine] | 5.87 nM | 7.61%
8 | CCN(C)S(=O)(=O)Nc1ccc(F)c(C(=O)c2c[nH]c3ncc(-c4ccc(N5CCN(C(=O)CN6CCC(N7CCN(C8CCC(=O)NC8=O)C(=O)C7)C(F)(F)C6)CC5)cc4)cc23)c1F (stereo not shown) [Example 172, 5-[4-[4-[2-[4-[4-(2,6-dioxo-3-piperidyl)-3-oxo-piperazin-1-yl]-3,3-difluoro-1-piperidyl]acetyl]piperazin-1-yl]phenyl]-3-[3-[[ethyl(methyl)sulfamoyl]amino]-2,6-difluoro-benzoyl]-1H-pyrrolo[2,3-b]pyridine] | 4.67 nM | 6.28%
9 | CCN(C)S(=O)(=O)Nc1ccc(F)c(C(=O)c2c[nH]c3ncc(-c4cnc(N5CCN(C(=O)CN6CCC(N7CCN(C8CCC(=O)NC8=O)C(=O)C7)C(F)(F)C6)CC5)nc4)cc23)c1F (stereo not shown) [Example 173, 5-[2-[4-[2-[4-[4-(2,6-dioxo-3-piperidyl)-3-oxo-piperazin-1-yl]-3,3-difluoro-1-piperidyl]acetyl]piperazin-1-yl]pyrimidin-5-yl]-3-[3-[[ethyl(methyl)sulfamoyl]amino]-2,6-difluoro-benzoyl]-1H-pyrrolo[2,3-b]pyridine] | 6.37 nM | 7.19%
10 | CCN(C)S(=O)(=O)Nc1ccc(F)c(C(=O)c2c[nH]c3ncc(-c4cnc(N5CCN(C(=O)CC6(O)CCN(c7ccc(N[C@@H]8CCC(=O)NC8=O)cc7F)CC6)CC5)nc4)cc23)c1F [Example 174, 5-[2-[4-[2-[1-[4-[[(3R)-2,6-dioxo-3-piperidyl]amino]-2-fluoro-phenyl]-4-hydroxy-4-piperidyl]acetyl]piperazin-1-yl]pyrimidin-5-yl]-3-[3-[[ethyl(methyl)sulfamoyl]amino]-2,6-difluoro-benzoyl]-1H-pyrrolo[2,3-b]pyridine] | 2.39 nM | 9.44%
11 | CCN(C)S(=O)(=O)Nc1ccc(F)c(C(=O)c2c[nH]c3ncc(-c4ccc(N5CCN(C(=O)CC6(O)CCN(c7ccc(C8CCC(=O)NC8=O)cc7F)CC6)CC5)cc4)cc23)c1F (stereo not shown) [Example 175, 5-[4-[4-[2-[1-[4-(2,6-dioxo-3-piperidyl)-2-fluoro-phenyl]-4-hydroxy-4-piperidyl]acetyl]piperazin-1-yl]phenyl]-3-[3-[[ethyl(methyl)sulfamoyl]amino]-2,6-difluoro-benzoyl]-1H-pyrrolo[2,3-b]pyridine] | 7.12 nM | 9.59%
12 | CCN(C)S(=O)(=O)Nc1ccc(F)c(C(=O)c2c[nH]c3ncc(-c4ccc(N5CCN(C(=O)CC6(O)CCN(c7ccc(N[C@H]8CCC(=O)NC8=O)cc7F)CC6)CC5)nc4)cc23)c1F [Example 176, 5-[6-[4-[2-[1-[4-[[(3S)-2,6-dioxo-3-piperidyl]amino]-2-fluoro-phenyl]-4-hydroxy-4-piperidyl]acetyl]piperazin-1-yl]-3-pyridyl]-3-[3-[[ethyl(methyl)sulfamoyl]amino]-2,6-difluoro-benzoyl]-1H-pyrrolo[2,3-b]pyridine] | 5.84 nM | 9.54%
13 | CCN(C)S(=O)(=O)Nc1ccc(F)c(C(=O)c2c[nH]c3ncc(-c4ccc(N5CCN(C(=O)CC6(O)CCN(c7ccc(N[C@@H]8CCC(=O)NC8=O)cc7F)CC6)CC5)nc4)cc23)c1F [Example 177, 5-[6-[4-[2-[1-[4-[[(3R)-2,6-dioxo-3-piperidyl]amino]-2-fluoro-phenyl]-4-hydroxy-4-piperidyl]acetyl]piperazin-1-yl]-3-pyridyl]-3-[3-[[ethyl(methyl)sulfamoyl]amino]-2,6-difluoro-benzoyl]-1H-pyrrolo[2,3-b]pyridine] | 3.65 nM | 9.99%
14 | CCN(C)S(=O)(=O)Nc1ccc(F)c(C(=O)c2c[nH]c3ncc(-c4ccc(N5CCN(C(=O)CC6(O)CCN(c7ccc(N[C@@H]8CCC(=O)NC8=O)cc7F)CC6)CC5)cc4)cc23)c1F [Example 178, 5-[4-[4-[2-[1-[4-[[(3R)-2,6-dioxo-3-piperidyl]amino]-2-fluoro-phenyl]-4-hydroxy-4-piperidyl]acetyl]piperazin-1-yl]phenyl]-3-[3-[[ethyl(methyl)sulfamoyl]amino]-2,6-difluoro-benzoyl]-1H-pyrrolo[2,3-b]pyridine] | 2.71 nM | 9.65%
15 | CCN(C)S(=O)(=O)Nc1ccc(F)c(C(=O)c2c[nH]c3ncc(-c4ccc(N5CCN(C(=O)CC6(O)CCN(c7ccc(N[C@H]8CCC(=O)NC8=O)cc7F)CC6)CC5)cc4)cc23)c1F [Example 179, 5-[4-[4-[2-[1-[4-[[(3S)-2,6-dioxo-3-piperidyl]amino]-2-fluoro-phenyl]-4-hydroxy-4-piperidyl]acetyl]piperazin-1-yl]phenyl]-3-[3-[[ethyl(methyl)sulfamoyl]amino]-2,6-difluoro-benzoyl]-1H-pyrrolo[2,3-b]pyridine] | 5.91 nM | 8.35%
16 | CCN(C)S(=O)(=O)Nc1ccc(F)c(C(=O)c2c[nH]c3ncc(-c4ccc(N5CCN(C(=O)CC6(O)CCN(c7ccc(NC8CCC(=O)NC8=O)cc7F)CC6)CC5)c(Cl)c4)cc23)c1F (stereo not shown) [Example 180, 5-[3-chloro-4-[4-[2-[1-[4-[(2,6-dioxo-3-piperidyl)amino]-2-fluoro-phenyl]-4-hydroxy-4-piperidyl]acetyl]piperazin-1-yl]phenyl]-3-[3-[[ethyl(methyl)sulfamoyl]amino]-2,6-difluoro-benzoyl]-1H-pyrrolo[2,3-b]pyridine] | 4.62 nM | 8.93%
17 | CCN(C)S(=O)(=O)Nc1ccc(F)c(C(=O)c2c[nH]c3ncc(-c4ccn(C5CCN(C(=O)CC6(O)CCN(c7ccc(NC8CCC(=O)NC8=O)cc7F)CC6)CC5)c(=O)c4)cc23)c1F (stereo not shown) [Example 181, 5-[1-[1-[2-[1-[4-[(2,6-dioxo-3-piperidyl)amino]-2-fluoro-phenyl]-4-hydroxy-4-piperidyl]acetyl]-4-piperidyl]-2-oxo-4-pyridyl]-3-[3-[[ethyl(methyl)sulfamoyl]amino]-2,6-difluoro-benzoyl]-1H-pyrrolo[2,3-b]pyridine] | 11.5 nM | 13.5%
